Experimental data as given in patent US20090280096A1, “PANCREATIC ENDOCRINE PROGENITOR CELLS DERIVED FROM PLURIPOTENT STEM CELLS” (priority 2008, published 2009).

B1: BMP4: growth factor BMP-4 (R&D Systems) added to SFD medium days 4-6 (protein, UniProt P12644 293-408, looked up)
Bone morphogenetic protein 4: SPKHHSQRARKKNKNCRRHSLYVDFSDVGWNDWIVAPPGYQAFYCHGDCPFPLADHLNSTNHAIVQTLVNSVNSSIPKACCVPTELSAISMLYLDEYDKVVLKNYQEMVVEGCGCR

What was measured:
[1] = tested on: pancreatic EBs induced by Pdx1 and Ngn3 (Tet-pdx1/ngn3 ES cells); test: C-peptide secretion assay (RIA) of EBs stimulated with secretagogues; format: cell-based, mouse; conditions: floating EBs with Dox, SFD without N2 and RA, stimulated 1 hour in HKRB buffer; for stimulation of C-peptide secretion: KCl 30 mM, Forskolin 10 μM, IBMX 0.5 mM; for response of C-peptide secretion to stimulation: glucose 20 mM, tolbutamide 100 μM
Description: Tet-pdx1/ngn3 ES cells were cultured in SFD conditions. Pdx1 and Ngn3 expression was induced with (Dox+) or without (Dox−) Dox after day 4, and cells were harvested at the indicated time points. (A) CXCR4/c-kit^−/− or CXCR4/c-kit^+/+ cells were sorted in day 4 EBs by using a FACS sorter. Sorted cells were reaggregated and replated at day 6 on gelatin coated plates. EBs were harvested at day 9. Ins1 mRNA levels were quantified by real time PCR and normalized to the 18S mRNA levels. (B) N2 media was added to or omitted from the SFD media for days 0-14. B27, with or without retinoic acid (RA), was combined in SFD for days 0-4 and for day 4-14 (also +/−N2). Ins1 mRNA levels were quantified by real time PCR and normalized to the 18S mRNA levels. (C) Tet-pdx1/ngn3 ES cells were cultured in SFD condition without N2 and RA for 18 days. Cytoplasmic insulin was stained and analyzed by FACS. (D) Floating EBs were cultured in SFD without N2 and RA for 18 days, with or without Dox. EBs were incubated in SFD without N2 and RA for 24 hours and supernatants were harvested. C-peptide, glucagon and somatostatin were measured by RIA or EIA. (E) Floating EBs were cultured in SFD without N2 and RA for 19 days and then were unstimulated or stimulated with KCl (3 or 30 mM), glucose (20 mM), tolbutaminde (100 μM), Forskolin (10 μM) or IBMX (0.5 mM) in HKRB buffer for 1 hour. Supernatants were harvested and C-peptide was measured by RIA.
After culturing EBs for 17-18 days in SFD conditions without N2 and RA with or without Dox (1 μg/ml) as described above, the medium was changed to fresh SFD media containing 2 mM glutamine. The EBs were then incubated for 24 hours as indicated, and the conditioned medium was collected for assay. Concentrations of glucagon and somatostatin in the conditioned medium were measured using enzyme immunoassays (EIAs) specific to glucagon (Yanaihara) or somatostatin (Phoenix Pharmaceuticals) according the manufacturer's instructions. C-peptide was measured by radioimmunoassay (RIA) specific to C-peptide (Linco). For C-peptide secretion assay, day 18 EBs were washed with media were incubated in HEPES-balanced Krebs-Ringer bicarbonate (HKRB) buffer (20 mM HEPES, 103 mM NaCl, 4.8 mM KCl, 0.5 mM CaCl2, 1.2 mM MgSO4, 1.2 mM KH2PO4, 25 mM NaHCO3, 2 mM glucose, pH 7.4) with or without stimulations for 1 hour. C-peptide in the supernatant was measured by a specific RIA. Total protein amounts of EBs in each sample were evaluated by BCA assay and secretion levels for C-peptide, glucagons and somatostatin were adjusted by protein amount.
To evaluate pancreatic hormone secretion, pancreatic EBs were cultured in SFD without N2 and RA for 16-18 days and then EBs were incubated in fresh SFD media for 24 hours. The secretion of pancreatic hormones such as C-peptide, glucagon and somatostatin in the supernatant was evaluated by RIA or EIA. C-peptide, somatostatin and glucagons were not detected in EBs without Dox stimulation. […] Stimulation of C-peptide secretion by treating endocrine progenitor cells with different agents for one hour was also evaluated (FIG. 6E). C-peptide secretion increased around five fold by the addition of 30 mM potassium chloride (KCl). Forskolin and IBMX, which increase intracellular cAMP, also stimulated C-peptide secretion around 2 fold and 3 fold, respectively. No response to glucose or the inhibitors of KATP channel, glibenclamide and tolbutamide, was detected.

[2] = tested on: Ins1 mRNA in Tet-pdx1/ngn3 Ainv ES cell-derived EBs; test: Ins1 mRNA by real time PCR in EBs cultured in SFD conditions; format: cell-based, mouse; conditions: BMP4 (50 ng/ml) for days 4-6 with Dox, EBs harvested at day 9
Description: Tet-pdx1/ngn3 ES cells were cultured in SFD conditions. Pdx1 and Ngn3 expression was induced with (Dox+) or without (Dox−) Dox after day 4 and cells were harvested at the indicated time points. (A, B) Ins1 mRNA levels were quantified by a real time PCR and normalized to the 18S mRNA levels. A. Day 4 EBs were trypsinized and reaggregated with (closed circles) or without BMP4 (open squares) for days 4-6. EBs were harvested at days 6 and 9. B. At day 6, EBs were replated on gelatin coated dishes and floating EBs were transferred to low-cluster dishes at day 7. Attached monolayer EBs (open bars) and floating EBs (closed bars) were harvested at day 9. (C, D) Floating EBs were cultured in SFD conditions with (closed circles) or without (open squares) Dox. Ins1 (C) or Ins2 (D) mRNA levels were quantified by a real time PCR and normalized to the 18S mRNA levels.
For a real time PCR, commercially available assay mixes (Applied Biosystems) for Ins1 (Mm01259683_g1), Ins2 (Mm0731595_gH) and 18S (Hs99999901_s1) were used to quantify mRNA levels, and PCR was performed using a Prism 7700 Sequence Detector (Applied Biosystems). […]
Tet-pdx1/ngn3 Ainv ES cells were cultured in SFD for 2 days and then activin was added for days 2-4 to induce endoderm differentiation. […] Without Dox treatment, Ins1 mRNA was not detected at day 6 or day 9. […]

Molecule	stimulation of C-peptide secretion [1]	response of C-peptide secretion to stimulation [1]	also measured
C=C[C@@]1(C)CC(=O)[C@]2(O)[C@@]3(C)[C@@H](O)CCC(C)(C)[C@@H]3[C@H](O)[C@H](OC(C)=O)[C@@]2(C)O1 [Forskolin]	around 2 fold		
CC(C)Cn1c(=O)n(C)c(=O)c2[nH]cnc21 [IBMX]	~3 fold		
[Cl-].[K+] [KCl, potassium chloride]	around five		
COc1ccc(Cl)cc1C(=O)NCCc1ccc(S(=O)(=O)NC(=O)NC2CCCCC2)cc1 [glibenclamide]		No response	
CCCCNC(=O)NS(=O)(=O)c1ccc(C)cc1 [tolbutamide]		No response	
B1			Ins1 mRNA level normalized to 18S mRNA [2]: 3.1 % of βTC6
